Values joined by “and” are separate entries in the source; they are usually repeats but may differ in a detail not shown here. Equal entries are not always repeated.
Legend:
[1] = biological target: T1, NK2 receptor of rabbit pulmonary artery (Oryctolagus cuniculus, UniProt P79218); experiment: Inhibition of NK2 receptor-mediated contraction of rabbit pulmonary artery (agonist BANK); settings: endothelium removed, read-out: -log molar KB (converted)
T1 construct: The left and right branches of the pulmonary artery were obtained from each animal; from tissue; host or cells: rabbit pulmonary artery rings, endothelium removed
T1 sequence (P79218 1-384): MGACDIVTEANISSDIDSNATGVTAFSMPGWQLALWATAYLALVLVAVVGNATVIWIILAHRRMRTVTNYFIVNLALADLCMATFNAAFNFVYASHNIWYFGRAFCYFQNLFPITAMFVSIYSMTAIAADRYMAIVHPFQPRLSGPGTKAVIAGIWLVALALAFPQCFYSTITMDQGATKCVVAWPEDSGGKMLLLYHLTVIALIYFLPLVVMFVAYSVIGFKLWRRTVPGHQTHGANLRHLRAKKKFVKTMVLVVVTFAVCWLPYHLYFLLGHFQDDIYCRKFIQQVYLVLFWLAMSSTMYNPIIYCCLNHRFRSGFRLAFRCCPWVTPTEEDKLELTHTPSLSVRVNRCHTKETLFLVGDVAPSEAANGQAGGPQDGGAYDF
Description: Inhibition of NK2 Receptor-Mediated Contraction of Rabbit Pulmonary Artery:
Male New Zealand white rabbits were administered a lethal injection of Nembutal, (60 mg/kg) into a cannulated ear vein. Heparin, 0.0025 mL/kg of a 1000 U/ml solution, was injected into the ear vein prior to Nembutal in order to decrease blood coagulation. The left and right branches of the pulmonary artery were obtained from each animal. The segments, with or without endothelium, were suspended as rings in water-jacketed tissue baths maintained at 37° C. containing physiological salt solution of the following composition (mM): NaCl (119.0); KCl (4.6); CaCl2 (1.8); MgCl2 (0.5); NaH2PO4 (1.0); NaHCO3 (25.0); glucose (11.0); and gassed continuously with 95% O2-5% CO2. […] Changes in tension were measured on a Grass polygraph via Grass FT-03 force transducers.
(§1) To study NK2-mediated contraction, the vascular endothelium was removed and beta-Ala^8-NKA (“BANK”) was used as agonist. […] The response to each concentration of ASMSP was expressed as a percentage of the total relaxation induced by papaverine. […] Apparent KB values for the compound were calculated using the standard equation: KB=[antagonist]/(dose ratio−1), where dose ratio was equal to antilog [(−log molar EC50 without antagonist)−(−log molar EC50 with antagonist)]. The resulting KB values are expressed as −log molar KB.

[2] = biological target: T2, NK2 receptor, human bronchus (Homo sapiens, UniProt P21452); experiment: NK2 receptor antagonism in human bronchus; settings: read-out: -log molar KB (converted)
T2 construct: from tissue; host or cells: human bronchus
T2 sequence (P21452 1-398): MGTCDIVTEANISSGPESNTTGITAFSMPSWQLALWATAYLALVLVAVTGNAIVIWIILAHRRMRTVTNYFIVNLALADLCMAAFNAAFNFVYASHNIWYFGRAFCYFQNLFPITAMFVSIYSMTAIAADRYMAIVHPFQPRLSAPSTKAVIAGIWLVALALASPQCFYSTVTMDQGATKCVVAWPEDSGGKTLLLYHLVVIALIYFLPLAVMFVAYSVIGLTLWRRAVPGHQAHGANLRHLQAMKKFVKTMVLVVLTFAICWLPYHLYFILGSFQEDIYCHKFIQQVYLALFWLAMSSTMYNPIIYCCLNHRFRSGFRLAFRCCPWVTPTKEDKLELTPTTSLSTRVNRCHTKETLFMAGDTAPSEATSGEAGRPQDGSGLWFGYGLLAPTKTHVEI

NK1 receptor = experiment: NK1 receptor-mediated relaxation of rabbit pulmonary artery induced by ASMSP
Description: Male New Zealand white rabbits were administered a lethal injection of Nembutal, (60 mg/kg) into a cannulated ear vein. Heparin, 0.0025 mL/kg of a 1000 U/ml solution, was injected into the ear vein prior to Nembutal in order to decrease blood coagulation. The left and right branches of the pulmonary artery were obtained from each animal. The segments, with or without endothelium, were suspended as rings in water-jacketed tissue baths maintained at 37° C. containing physiological salt solution of the following composition (mM): NaCl (119.0); KCl (4.6); CaCl2 (1.8); MgCl2 (0.5); NaH2PO4 (1.0); NaHCO3 (25.0); glucose (11.0); and gassed continuously with 95% O2-5% CO2. Initial tension placed on each tissue was 2 gm, which was maintained throughout a 0.5 hour equilibration period. Changes in tension were measured on a Grass polygraph via Grass FT-03 force transducers.
as §1

human NK2 receptor = biological target: T3, human NK2 receptor (Homo sapiens, UniProt P21452); experiment: Neurokinin receptor binding assay, 3H-NKA binding to MEL cell membranes; settings: tritiated NKA; read-out: Ki, concentration at which 50% inhibition of binding of NKA was achieved
T3 construct: expressed in transfected cells; host or cells: Mouse Erythroleukemia (MEL) cells, membrane preparation (MELM)
T3 sequence (P21452 1-398): T2 sequence (P21452 1-398)

NK1 receptors = biological target: T4, NK1 receptors (Homo sapiens, UniProt P25103); experiment: Inhibition of binding of a tritiated derivative of SP in a tissue preparation selective for NK1 receptors; settings: read-out: concentration at which 50% inhibition of binding of SP was achieved
T4 construct: from tissue; host or cells: unnamed tissue preparation selective for NK1 receptors
T4 sequence (P25103 whole entry): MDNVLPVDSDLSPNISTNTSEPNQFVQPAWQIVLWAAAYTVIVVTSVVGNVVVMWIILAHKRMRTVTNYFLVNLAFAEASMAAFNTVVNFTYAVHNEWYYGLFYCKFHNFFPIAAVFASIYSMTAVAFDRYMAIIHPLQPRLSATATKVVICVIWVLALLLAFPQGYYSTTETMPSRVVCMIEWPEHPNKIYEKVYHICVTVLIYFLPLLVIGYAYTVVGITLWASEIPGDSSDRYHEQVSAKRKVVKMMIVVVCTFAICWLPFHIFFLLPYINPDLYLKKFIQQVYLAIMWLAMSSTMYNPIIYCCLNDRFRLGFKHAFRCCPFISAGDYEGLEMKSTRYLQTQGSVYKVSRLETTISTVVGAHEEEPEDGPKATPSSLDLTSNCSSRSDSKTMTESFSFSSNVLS
Source text: The specificity of inhibition by the Compound was shown by inhibiting the binding of tritiated NKA at the NK2 receptor compared to inhibition of binding of a tritiated derivative of SP in a tissue preparation selective for NK1 receptors.

BANK-induced dyspnea = BANK-induced dyspnea in conscious guinea pigs; type: in vivo, guinea pig; settings: for ED50: Cavia porcellus
Description: Dyspnea (labored abdominal breathing) was induced in conscious guinea pigs by aerosol administration of BANK, as previously described (Kusner, et al. Euro. J. Pharmacol. 210:299-306,1992). All animals were pretreated with atropine, 10 mg/kg ip 45 minutes; indomethacin, 10 mg/kg ip 30 minutes; propranolol, 5 mg/kg ip 30 minutes; and thiorphan, 1 mg/ml aerosol for 5 minutes duration, starting 15 minutes prior to challenge in order to block muscarinic receptors, cyclooxygenase, beta-adrenergic receptors, and neutral endopeptidase (EC 3.4.24.11), respectively. Animals were pretreated with Compound or vehicle at appropriate times before challenge with aerosolized BANK for 780 seconds. BANK was administered to six animals simultaneously by being aerosolized with a DeVilbiss ultrasonic nebulizer into an air stream flowing into a Plexiglas chamber at a rate of 2 liter/min. The time required for dyspnea to occur was recorded for each animal. […] Vehicle pretreated control animals were included in each experiment. Results are reported in % protection values where: [formula]

[3] = tested on: BANK-induced bronchoconstriction; experiment: Pulmonary mechanics in anesthetized guinea pigs, BANK-induced bronchoconstriction; type: in vivo, guinea pig
[4] = tested on: BANK-induced bladder contraction; experiment: In vivo bladder contraction inhibition in rats (BANK-induced); set-up: species or system rat
[5] = Side-effects in laboratory test animals; type: in vivo; settings: several multiples of the minimum effective dose
overactive bladder = settings: OAB patients; cited from earlier work

SMILES	Kb [1] [nM]	Kb [2] [nM]	antagonism of relaxation induced by ASMSP (NK1 receptor; endothelium intact, phenylephrine-contracted)	selectivity, KB against NK1 receptor-mediated response versus NK2 receptor-mediated response (NK1 receptor; rabbit pulmonary artery)	Ki (human NK2 receptor) [nM]	IC50 (NK1 receptors) [nM]	protection half-life against BANK-induced dyspnea (BANK-induced dyspnea; 2 mg/kg dose, duration of action studies) [h]	ED50 (BANK-induced dyspnea; intravenously 30 min prior to challenge)	ED50 (BANK-induced dyspnea; oral administration 120 min before challenge)	Maximum efficacy (% protection) (BANK-induced dyspnea; intravenous, 0.3 μmol/kg) [%]	Maximum efficacy (% protection) (BANK-induced dyspnea; oral dose of 3.0 μmol/kg) [%]	rightward shift of the response curves for BANK ([3]; intravenously at 30 min before BANK) [fold]	rightward shift in the BANK-induced dose-response curve ([3]; oral 120 min before BANK) [fold]	maximum efficacy ([4]; […] (1.8 mg/kg) against intravenous BANK (3 nmol/kg))	activity in bladder contraction test ([4]; intravenously and orally, 0.2 to 5 μmol/kg body weight)	Duration of action ([4]; oral 1.2 μmol/kg)	half-life of action ([4]; oral 1.2 μmol/kg) [h]	maximum efficacy ([4]; oral, 5 μmol/kg (2.5 mg/kg))	untoward side-effects [5]	adverse effects (primarily dry mouth), share of the patient population (overactive bladder)
CN(C[C@@H](CCN1CCC(N2CCCNC2=O)CC1)c1ccc(Cl)c(Cl)c1)C(=O)c1ccccc1 [the Compound, (S)-N-[2-(3,4-dichlorophenyl)-4-[4-(2-oxoperhydropyrimidin-1-yl)piperidino]butyl]-N-methylbenzamide]	0.891	2.4	minor antagonism	1,096 fold	1.25	187	2.43	0.13 µmol/kg and 0.07 mg/kg	0.75 µmol/kg and 0.39 mg/kg	95	100	~196	~481	approximately 100%	active and selective	about 6 hr	~3.5	about 80%	has not been found to show any indication of any untoward side-effects	
CCN(CC)CC#CCOC(=O)C(O)(c1ccccc1)C1CCCCC1 (stereo not drawn) [oxybutinin]																				approximately 78%
Cc1ccc(O)c([C@H](CCN(C(C)C)C(C)C)c2ccccc2)c1 [tolterodine]																				~39%
